From patent US20190105337A1, “METHODS OF TREATING BACTERIAL INFECTIONS” (priority 2015, published 2019)
Where two headings read alike, the source gives them in different places.

Test: Example 1: pharmacokinetics of Compound I, single (SD) and multiple (MD, q8h 7 days) ascending doses, 3-hour IV infusion, healthy adult subjects
Assay type: in vivo, human
Details: for CL renal / AUC(0-t) / Cmax / Tmax / half-life: human, intravenous; for CL renal: plasma and urine; for AUC(0-t) / Cmax / Tmax / half-life: plasma; for half-life: read-out: T1/2 (converted)
Procedure: 56 healthy subjects were enrolled into one of 7 cohorts of 8 subjects each in the single ascending dose phase (250 mg, 500 mg, 750 mg, 1000 mg, 1250 mg, 1500 mg and 2000 mg). Thirty-two additional subjects were then enrolled into one of 4 cohorts in the multiple-dose phase (250 mg, 1000 mg, 1500 mg, and 2000 mg, given q8 h for 7 days). […] All infusions were administered over 3 hours. Plasma and urine samples were obtained after single or multiple doses and assayed for Compound I content using a validated HPLC/MS method.

`O=C(O)C[C@@H]1CC[C@H](NC(=O)Cc2cccs2)B(O)O1` [Compound I] gave a CLNon-R (250 mg multiple dose) of 2.49 L/h, a CLNon-R (250 mg single dose) of 2.85 L/h and a CLNon-R (500 mg single dose) of 2.55 L/h. For the same compound, the CLNon-R (750 mg single dose) was 1.72 L/h, the CLNon-R (1000 mg multiple dose) was 2.31 L/h and the CLNon-R (1000 mg single dose) was 0.97 L/h. For the same compound, the CLNon-R (1250 mg single dose) was 1.33 L/h, the CLNon-R (1500 mg multiple dose) was 1.68 L/h and the CLNon-R (1500 mg single dose) was 1.42 L/h. For the same compound, the CLNon-R (2000 mg multiple dose) was 1.15 L/h, the CLNon-R (2000 mg single dose) was -1.07 L/h and the “exposure (Cmax and AUC) versus dose” value (following single and multiple doses) was “increased in a dose-proportional manner”. For the same compound, the CL renal (250 mg, 250 mg multiple dose) was 212 mL/min, the CL renal (250 mg, 250 mg single dose) was 212 mL/min and the CL renal (500 mg, 500 mg single dose) was 197 mL/min. The CL renal (750 mg, 750 mg single dose) was 217 mL/min, the CL renal (1000 mg, 1000 mg multiple dose) was 195 mL/min and the CL renal (1000 mg, 1000 mg single dose) was 202 mL/min. The CL renal (1250 mg, 1250 mg single dose) was 192 mL/min, the CL renal (1500 mg, 1500 mg multiple dose) was 187 mL/min and the CL renal (1500 mg, 1500 mg single dose) was 197 mL/min. It also gave a CL renal (2000 mg, 2000 mg multiple dose) of 213 mL/min, a CL renal (2000 mg, 2000 mg single dose) of 252 mL/min and an AUC(0-t) (250 mg, 250 mg multiple dose) of 16300 ng·h/mL. The Cmax (250 mg, 250 mg multiple dose) was 4810 ng/mL, the Tmax (250 mg, 250 mg multiple dose) was 2.25 h and the half-life (250 mg, 250 mg multiple dose) was 1.17 h. It also gave an AUC(0-t) (250 mg, 250 mg single dose) of 16200 ng·h/mL, a Cmax (250 mg, 250 mg single dose) of 5030 ng/mL and a Tmax (250 mg, 250 mg single dose) of 3.02 h. For the same compound, the half-life (250 mg, 250 mg single dose) was 1.17 h, the AUC(0-t) (500 mg, 500 mg single dose) was 34500 ng·h/mL and the Cmax (500 mg, 500 mg single dose) was 9970 ng/mL. For the same compound, the Tmax (500 mg, 500 mg single dose) was 3 h, the half-life (500 mg, 500 mg single dose) was 1.35 h and the AUC(0-t) (750 mg, 750 mg single dose) was 50600 ng·h/mL. It also gave a Cmax (750 mg, 750 mg single dose) of 15300 ng/mL, a Tmax (750 mg, 750 mg single dose) of 3 h and a half-life (750 mg, 750 mg single dose) of 1.24 h. For the same compound, the AUC(0-t) (1000 mg, 1000 mg multiple dose) was 74600 ng·h/mL, the Cmax (1000 mg, 1000 mg multiple dose) was 21300 ng/mL and the Tmax (1000 mg, 1000 mg multiple dose) was 3 h. The half-life (1000 mg, 1000 mg multiple dose) was 1.43 h, the AUC(0-t) (1000 mg, 1000 mg single dose) was 76700 ng·h/mL and the Cmax (1000 mg, 1000 mg single dose) was 21800 ng/mL. It also gave a Tmax (1000 mg, 1000 mg single dose) of 3.01 h, a half-life (1000 mg, 1000 mg single dose) of 1.41 h and an AUC(0-t) (1250 mg, 1250 mg single dose) of 97200 ng·h/mL. For the same compound, the Cmax (1250 mg, 1250 mg single dose) was 27800 ng/mL, the Tmax (1250 mg, 1250 mg single dose) was 3 h and the half-life (1250 mg, 1250 mg single dose) was 1.32 h. It also gave an AUC(0-t) (1500 mg, 1500 mg multiple dose) of 118000 ng·h/mL, a Cmax (1500 mg, 1500 mg multiple dose) of 33400 ng/mL and a Tmax (1500 mg, 1500 mg multiple dose) of 3 h.
